Series [1] deals with CD8F1 spontaneous mammary adenocarcinoma. The series is described as follows: TAU/uridine rescue with 5-FU alone in tumor-bearing mice (Example 5). The format is in vivo. The procedure:
Sixty CD8F1 (BALB/C×[…]) female mice with first generation transplants of CD8F1 spontaneous mammary adenocarcinoma were treated with a weekly chemotherapy regimen which included a single dose of 5-FU (150 mg/kg) followed by various rescue strategies. The average tumor size was 157 mg at the start of the chemotherapy. The weekly chemotherapy course was completed three times.
In order to evaluate the various rescue therapies, the animals were divided into six groups of ten animals each as follows: […]

Series [2] deals with hematopoietic system (AZT toxicity). The series can be described thus: DAdC or THU vs hematopoietic damage by i.p. AZT in Balb/C mice (Example 11). The settings on record: for Total neutrophil counts: day thirteen, AZT + DAdC 300 mg/kg p.o. or THU […] i.p. three times daily. It is filed as in vivo, female Balb/C mice. The procedure:
AZT (100 mg/kg i.p.) was given three times daily at 9 a.m., 4 p.m., and 10 p.m. to twenty-one female Balb/C mice weighing approximately 20 grams each. […] Treatment volume was 0.2 ml. One group of seven mice was not given AZT or any treatment (basal).
On day thirteen blood (0.2–0.3 ml) was collected from mice in each group by retro-orbital bleeding-into EDTA for subsequent differential blood cell counting, including reticulocytes. The animals were then sacrificed by cervical dislocation; their right femurs removed and the contents expelled for cell counting; and their spleens removed and weighed.

Series [3] has the same test system. The series is described as follows: Oral DAdC vs hematopoietic toxicity of i.p. AZT in DBA mice (Example 10). It is filed as in vivo, female DBA mice. As for the experimental part:
AZT (100 mg/kg i.p.) was given three times daily at 9 a.m., 4 p.m., and at 10 p.m. to twenty-eight female DBA mice weighing approximately 20 grams each. Three times each day, at 9 a.m., 4 p.m., and 10 p.m., animals were treated with either water (control) or DAdC (411 mg/kg/treatment) by oral intubation. Treatment volume was 0.2 ml. One additional group of fourteen mice was not given AZT or any treatment (basal).
During the first few days of treatment a total of eight mice died from accidents occurring during oral administration of the water and DAdC. Therefore, the number of animals in the control group and the DAdC group were reduced on the days of sacrifice as follows: On day 6 there were four mice in the control group and five in the DAdC group; on day 13 there were seven in the control group and three in the DAdC group. The number of basal animals was seven at both time points.
On days six and thirteen blood (0.2–0.3 ml) was collected from mice in each group by retro-orbital bleeding into EDTA for subsequent differential blood cell counting, including reticulocytes. The animals were then sacrificed by cervical dislocation; their right femurs removed and the contents expelled for cell counting; and their spleens removed and weighed.

In series [4] the test system is hematopoietic system (Ara-C toxicity). The series is described as follows: DAdC or PdC vs hematopoietic toxicity of arabinosyl cytosine (Example 7). It is filed as in vivo, Balb/C female mice. The settings on record: Ara-C 100 mg/kg i.p. daily for five days; DAdC 411 mg/kg p.o. or PdC 200 mg/kg i.p. twice daily. The procedure:
Twenty-one Balb/C female mice weighing approximately 20 grams each received a daily intraperitoneal injection of Ara-C (100 mg/kg) for five days. These mice were divided into three treatment groups: oral administration of water (controls); oral administration of DAdC (411 mg/kg/treatment); and intraperitoneal administration of PdC (200 mg/kg/treatment in 0.2% Tween 80). Mice were treated with either water, DAdC, or PdC twice daily, at 9 a.m. and 6 p.m. Treatment volume in each case was 0.2 ml. An additional seven mice received no Ara-C and no treatment at all (basals).
On days seven and eleven following 5-FU administration, blood (0.2–0.3 ml) was collected from the seven mice in each group by retro-orbital bleeding into EDTA for subsequent differential blood cell counting. Mice were sacrificed by cervical dislocation, and their spleens removed and weighed.

The subject of series [5] is hematopoietic system (5-FU toxicity). The series is described as follows: Acyl derivatives of uridine i.p. vs bone marrow toxicity of 5-FU (Example 3). It is filed as in vivo, female Balb/C mice. The settings on record: for Spleen weights: day eleven after 5-FU, in mg; for HCT % / Lym / Neut / RBC / WBC: eleven days after 5-FU; for Spleen weight: day seven after 5-FU 150 mg/kg i.p., i.p. doses equimolar to uridine 300 mg/kg/treatment. As for the experimental part: Ninety-eight female Balb/C mice weighing approximately 20 grams each were given a one-time 150 mg/kg injection (i.p.) of 5-FU at 1 p.m. on the initial day of the study. […] All of these doses are equimolar, and were administered in a volume of 0.4 ml by i.p. injection. The groups were treated at 3:30, 6:00, and 8:30 p.m. on the initial day with their respective agents. […] On days seven and eleven following 5-FU administration, blood (0.2–0.3 ml) was collected from seven mice in each group by retro-orbital bleeding into EDTA for subsequent differential blood cell counting. Mice were sacrificed by cervical dislocation; their right femurs removed and the contents expelled for cell counting; and their spleens removed and weighed.

For series [6] the test system is unchanged. The series can be described thus: Octanoyluridine vs hematological toxicity of 5-FU (Example 3A). The settings on record: seven days after 5-FU 75 mg/kg i.p.; Oct-U 100 mg/kg/treatment i.p. The format is in vivo, Balb/C female mice. As for the experimental part: Fourteen Balb/C female mice weighing approximately 20 grams each were given a one-time 75 mg/kg i.p. injection of 5-FU at 11:00 a.m. on the initial day of the study. Half of these animals were subsequently treated with Oct-U (100 mg/kg/treatment, i.p.), while the other half (controls) were injected with physiological saline. Administration of Oct-U and saline occurred at 2:30, 4:30, and 7:00 p.m. on the initial day, and at 9:30 a.m., 12:00 noon, 2:30, and 5:00 p.m the following day. An additional group of seven mice (basals) received no 5-FU and no treatments.

The nature of series [7]: Toxicity of oral tegafur with TAU or uracil: body weight and blood cell counts (Example 13). The format is in vivo, mice. The settings on record: alone or with uracil or TAU 4:1 molar. The procedure:
Triacetyluridine (TAU), like other acyl derivatives of uridine and cytidine of the invention, is converted to uridine and uracil during and after absorption into the bloodstream; when present at the same time as 5-FU, both uridine and uracil are capable of potentiating 5-FU cytotoxicity. Therefore, the cytotoxicity of oral tegafur+uracil versus tegafur+TAU was assessed. Blood cell counts were utilized as an index of cytotoxicity of 5-FU in the circulation (and by extension, of antitumor potency). Body weight loss was used as an index of gastrointestinal toxicity.
Three groups of mice received tegafur by oral intubation in a dose of 400 mg/kg per mouse. The initial body weight of mice in each group was 19.0±0.6 grams. One of these groups also received uracil in a molar ratio of 4:1 to the tegafur dose, and another group received TAU, also in a 4:1 molar ratio to tegafur. Body weights were monitored. Six days after tegafur administration, blood samples were taken for differential cell counts.
All drugs were administered orally in a single dose. Blood samples were taken for cell counts 6 days after drug administration; body weights were also recorded at this time.

The mark [8] stands for this setting: AZT for thirteen days + DAdC 300 mg/kg/treatment p.o.
The mark [9] stands for this setting: AZT for six days + oral DAdC 411 mg/kg/treatment.
[10] abbreviates: AZT for thirteen days + oral DAdC 411 mg/kg/treatment.
The mark [11] stands for this setting: 6 days after single oral tegafur 400 mg/kg.
Where [12] appears, read: day seven after 5-FU, equimolar i.p. doses.

Consider `O=c1[nH]cc(F)c(=O)[nH]1` [5-FU, 5-fluorouracil], for which the Mortality is on record as 10/10 in series [1] (5-FU 150 mg/kg i.p. weekly x3 + vehicle (oil-water emulsion)) and 9/10 in series [1] (5-FU alone 150 mg/kg i.p. weekly x3, no rescue).
Consider `CC(=O)OC[C@H]1O[C@@H](n2ccc(N)nc2=O)C[C@@H]1OC(C)=O` [DAdC, diacetyldeoxycytidine], for which the RBC in series [2] (AZT 100 mg/kg i.p. three times daily for thirteen days + DAdC 300 mg/kg/treatment p.o.) is given as 8.26 ± .13. Besides, in series [2] (setting [8]), the HCT came out at 39.51 ± 0.61, the HGB is reported as 14.97 ± .15 and the Retic. entry is listed as “.059 ± .006”. The Total neutrophil counts in series [2] came to 1.39±0.14. In addition, in series [3] (setting [9]), the HCT turned out to be 40.84 ± 1.35, the HGB is listed as 13.96 ± .40, the RBC is reported as 9.49 ± .32 and the Reticulocytes result is given as “.205 ± .075”. Besides, in series [3] (setting [10]), the HCT was 41.53 ± 1.17, the HGB amounted to 13.97, the RBC is recorded as 9.16 ± .32 and the Reticulocytes result is “.814 ± .069”. Moreover, in series [3] (day six, AZT 100 mg/kg i.p. three times daily + oral DAdC 411 mg/kg/treatment), the “reduction in bone marrow cellularity vs basals” value turned out to be 2.5%. Also, the Platelet counts in series [3] (day thirteen, AZT + oral DAdC 411 mg/kg/treatment) is recorded as 769±32. For the same compound, in series [4], the Neut is 0.42 ± .05 K/μl, the PLT is listed as 728 ± 64 K/μl, the Spleen stood at 87.8 ± 3.5 milligrams and the WBC was 5.00 ± .42 K/μl.
Consider `CCCCCCCC(=O)OCC1OC(n2ccc(=O)[nH]c2=O)C(O)C1O` (stereo not shown) [Oct-U], for which the “overall effect at the dose used” value in series [5] (after 5-FU, OU 455 mg/kg/treatment i.p.) is “somewhat detrimental”. Moreover, in series [6], the Lym was 4.62 ± .29 thousands per microliter, the Marrow is recorded as 7.73 ± .68 thousands per microliter, the Neut is reported as 1.19 ± .22 thousands per microliter and the PLT is reported as 1243 ± 59 K/μl. In series [6], the RBC is listed as 8.13 ± .14 M/μl, the Spleen weight is 87.2 ± 3.7 mg and the WBC is reported as 5.96 ± .47 thousands per microliter.
Consider `O=C1NC(O)CCN1[C@@H]1O[C@H](CO)[C@@H](O)[C@H]1O` (stereo partly shown) [THU, Tetrahydrouridine, reference compound], for which the Total neutrophil counts in series [2] is listed as 1.16±0.15.
Take `O=c1[nH]c(=O)n(C2CCCO2)cc1F` (stereo not shown) [Tegafur]: in series [7] (setting [11]), the Body weight worked out at 18.2 ± 0.7 grams, the Neutrophils is recorded as 0.40 ± 0.085 K/μl and the Platelets is reported as 956 ± 30 K/μl. The “loss of body weight compared to untreated (basal) animals” value in series [7] (oral tegafur 400 mg/kg) was 7%.
With benzoyluridine [BU], in series [5] (equimolar i.p. doses), the Spleen weights came out at 126.9±12.3, the HCT % is on record as 36.87 ± 0.6 %, the Lym is given as 5.1 ± .4 K/μl and the Neut amounted to 1.04 K/μl. In series [5] (equimolar i.p. doses), the RBC is given as 7.62 ± .1 M/μl and the WBC is 6.20 ± .49 K/μl. Moreover, the Platelet counts in series [5] (setting [12]) is reported as 829.6 ×10^3 per microliter.
ethoxycarbonyluridine [ECU]: the Spleen weight in series [5] turned out to be 75.7 ± 5.0 mg. In addition, in series [5] (setting [12]), the Lymphocyte counts is given as 7.19±0.32 ×10^3 per microliter and the “White blood cell counts” value was 7.26±0.31 ×10^3 per microliter. In series [5] (equimolar i.p. doses), the HCT % was 37.54 ± 1.0 %, the Lym is on record as 4.8 ± .5 K/μl, the Neut result is reported as “.66 ± K/μl” and the RBC is 7.65 ± .2 M/μl. In series [5] (equimolar i.p. doses), the WBC was 5.51 ± .64 K/μl.
Regarding palmitoyldeoxycytidine [PdC], in series [4], the Neut was 1.22 ± .27 K/μl, the PLT was 327 ± 30 K/μl, the Spleen amounted to 126.0 ± 5.3 milligrams and the WBC is recorded as 5.20 ± .35 K/μl.
For valeryluridine [VU], in series [5] (equimolar i.p. doses), the Spleen weights is listed as 139.4±8.0, the HCT % came to 38.31 ± 0.8 %, the Lym is 5.2 ± .4 K/μl and the Neut result is given as “.97 ± K/μl”. Further, in series [5] (equimolar i.p. doses), the RBC is recorded as 7.83 ± .1 M/μl and the WBC is 6.31 ± .42 K/μl. Further, the Spleen weight in series [5] was 69.1 ± 1.7 mg. Further, in series [5] (setting [12]), the Lymphocyte counts is reported as 6.42±0.49 ×10^3 per microliter, the Platelet counts is recorded as 825.7±26.7 ×10^3 per microliter, the Total neutrophil counts is 0.141±0.027 ×10^3 per microliter and the “White blood cell counts” value is listed as 6.57±0.49 ×10^3 per microliter.

(Values after patent US7166581B1, “Treatment of chemotherapeutic agent and antiviral agent toxicity with acylated pyrimidine nucleosides” (Wellstat Therapeutics Corporation, priority 1987, dated 2007).)
